# Experimental data taken from patent US10260043B2, “Human extensively self-renewing erythroblasts (ESRE)” (UNIVERSITY OF ROCHESTER, priority 2013, dated 2019).
# Tested on: murine ESREs
# Test: murine ESRE self-renewal supported by glucocorticoid
# Assay type: cell-based, mouse
# Settings: as effectively as 10^−6M dexamethasone; preliminary studies
# Source text: Other reagents necessary for improving the efficiency with which self-renewing cultures can be derived from human ESCs can be tested. This includes alternate steroids, such as fluticasone proprionate, an extremely potent glucocorticoid agent; our preliminary studies of murine ESREs indicate that doses of fluticasone as low as 10^−9M support erythroblast self-renewal as effectively as 10^−6M dexamethasone. Various lipid additives, including Excyte (Millipore) and Human LDL (Stem Cell Technology) can also be test for to optimizing support human erythroblast self-renewal.
substance,measurement,value
fluticasone proprionate,dose that supports erythroblast self-renewal,≤ 10^−9 M
